# Data taken from PMC5218480 (PLoS ONE, 2017).
# System: MV-4-11 cells
# Assay: Gene expression microarray analysis (Affymetrix PrimeView) and GSEA
# Assay type: cell-based, human
# Design: RFU PODN (11730768_x_at) / Fold change /veh PODN (11730768_x_at) / RFU LINC00158 (11744669_a_at) / Fold change /veh LINC00158 (11744669_a_at) / RFU DUSP10 (11751237_a_at) / Fold change /veh DUSP10 (11751237_a_at) / RFU ID3 (11757404_x_at) / Fold change /veh ID3 (11757404_x_at) / RFU PLEKHG5 (11737974_s_at) / Fold change /veh PLEKHG5 (11737974_s_at) / RFU LRRC4B (11730491_at) / Fold change /veh LRRC4B (11730491_at) / RFU GIMAP4 (11747438_a_at) / Fold change /veh GIMAP4 (11747438_a_at) / RFU KRT8 (11758183_x_at) / Fold change /veh KRT8 (11758183_x_at) / RFU CNN1 (11734310_a_at) / Fold change /veh CNN1 (11734310_a_at) / RFU VPS37D (11726825_at) / Fold change /veh VPS37D (11726825_at) / RFU C10orf10 (11716522_x_at) / Fold change /veh C10orf10 (11716522_x_at) / RFU KIR2DL2 /// KIR2DL4 /// KIR2DL5A /// KIR2DL5B /// KIR2DS1 /// KIR2DS2 /// KIR2DS3 /// KIR2DS4 /// KIR3DL3 /// KIR3DL3 /// KIR3DS1 (11738374_at) / Fold change /veh KIR2DL2 /// KIR2DL4 /// KIR2DL5A /// KIR2DL5B /// KIR2DS1 /// KIR2DS2 /// KIR2DS3 /// KIR2DS4 /// KIR3DL3 /// KIR3DL3 /// KIR3DS1 (11738374_at) / RFU C1QL1 (11718748_at) / Fold change /veh C1QL1 (11718748_at) / RFU TMPRSS4 (11747572_a_at) / Fold change /veh TMPRSS4 (11747572_a_at) / RFU HAMP (11756126_x_at) / Fold change /veh HAMP (11756126_x_at) / RFU RNFT2 (11725882_a_at) / Fold change /veh RNFT2 (11725882_a_at) / RFU NR4A2 (11747474_a_at) / Fold change /veh NR4A2 (11747474_a_at) / RFU ABCC12 (11746883_a_at) / Fold change /veh ABCC12 (11746883_a_at) / RFU TMEM136 (11760407_x_at) / Fold change /veh TMEM136 (11760407_x_at) / RFU CLDN22 /// WWC2 (11732394_at) / Fold change /veh CLDN22 /// WWC2 (11732394_at) / RFU HLA-DPB1 (11760878_x_at) / Fold change /veh HLA-DPB1 (11760878_x_at) / RFU SPINT1 (11716480_a_at) / Fold change /veh SPINT1 (11716480_a_at) / RFU GAP43 (11754022_s_at) / Fold change /veh GAP43 (11754022_s_at) / RFU A4GNT (11735810_at) / Fold change /veh A4GNT (11735810_at) / RFU PRB3 (11715151_x_at) / Fold change /veh PRB3 (11715151_x_at) / RFU TUBB4B (11761932_at) / Fold change /veh TUBB4B (11761932_at) / RFU CAPN14 (11732068_a_at) / Fold change /veh CAPN14 (11732068_a_at) / RFU TMCC2 (11721928_a_at) / Fold change /veh TMCC2 (11721928_a_at) / RFU IRGQ (11745062_a_at) / Fold change /veh IRGQ (11745062_a_at) / RFU FAM174B (11720279_a_at) / Fold change /veh FAM174B (11720279_a_at) / RFU TMPRSS4 (11748680_a_at) / Fold change /veh TMPRSS4 (11748680_a_at) / RFU FAM212B (11763350_a_at) / Fold change /veh FAM212B (11763350_a_at) / RFU PLEKHG5 (11743358_a_at) / Fold change /veh PLEKHG5 (11743358_a_at) / RFU ZSCAN30 (11745921_a_at) / Fold change /veh ZSCAN30 (11745921_a_at) / RFU CMKLR1 (11741424_a_at) / Fold change /veh CMKLR1 (11741424_a_at) / RFU LOC101060620 /// MAPK8IP1 (11723275_at) / Fold change /veh LOC101060620 /// MAPK8IP1 (11723275_at) / RFU SPTSSB (11747773_x_at) / Fold change /veh SPTSSB (11747773_x_at) / RFU PRSS12 (11739890_at) / Fold change /veh PRSS12 (11739890_at) / RFU BIN1 (11741810_x_at) / Fold change /veh BIN1 (11741810_x_at) / RFU WNT11 (11732464_a_at) / Fold change /veh WNT11 (11732464_a_at) / RFU C10orf10 (11716521_a_at) / Fold change /veh C10orf10 (11716521_a_at) / RFU C5orf56 (11738089_at) / Fold change /veh C5orf56 (11738089_at) / RFU CYB561 (11721691_x_at) / Fold change /veh CYB561 (11721691_x_at) / RFU ANKRD19P (11752326_a_at) / Fold change /veh ANKRD19P (11752326_a_at) / RFU OR2T12 /// OR2T33 /// OR2T8 (11738714_s_at) / Fold change /veh OR2T12 /// OR2T33 /// OR2T8 (11738714_s_at) / RFU VCAN (11748164_a_at) / Fold change /veh VCAN (11748164_a_at) / RFU JSRP1 (11732532_at) / Fold change /veh JSRP1 (11732532_at) / RFU KRTAP10-11 (11738290_x_at) / Fold change /veh KRTAP10-11 (11738290_x_at) / RFU MYO3A (11730013_a_at) / Fold change /veh MYO3A (11730013_a_at) / RFU EBF3 (11725865_a_at) / Fold change /veh EBF3 (11725865_a_at) / RFU CAMK2N1 (11719241_x_at) / Fold change /veh CAMK2N1 (11719241_x_at) / RFU C5orf56 (11738088_a_at) / Fold change /veh C5orf56 (11738088_a_at) / RFU OLFML3 (11715873_a_at) / Fold change /veh OLFML3 (11715873_a_at) / RFU LOC100653217 /// NTM (11731650_a_at) / Fold change /veh LOC100653217 /// NTM (11731650_a_at) / RFU MAPK11 (11762145_a_at) / Fold change /veh MAPK11 (11762145_a_at) / RFU FIZ1 (11724087_x_at) / Fold change /veh FIZ1 (11724087_x_at) / RFU OASL (11726364_x_at) / Fold change /veh OASL (11726364_x_at) / RFU SOX15 (11748057_x_at) / Fold change /veh SOX15 (11748057_x_at) / RFU CD79A (11719716_a_at) / Fold change /veh CD79A (11719716_a_at) / RFU HIST1H1D (11736915_at) / Fold change /veh HIST1H1D (11736915_at) / RFU CASKIN2 (11723855_a_at) / Fold change /veh CASKIN2 (11723855_a_at) / RFU LOC730098 (11760151_x_at) / Fold change /veh LOC730098 (11760151_x_at) / RFU OR4N2 (11742367_at) / Fold change /veh OR4N2 (11742367_at) / RFU PRRT2 (11749266_a_at) / Fold change /veh PRRT2 (11749266_a_at) / RFU SNX32 (11753110_a_at) / Fold change /veh SNX32 (11753110_a_at) / RFU CDHR5 (11726645_a_at) / Fold change /veh CDHR5 (11726645_a_at) / RFU RCAN1 (11760418_a_at) / Fold change /veh RCAN1 (11760418_a_at) / RFU FAM167A (11723789_a_at) / Fold change /veh FAM167A (11723789_a_at) / RFU FAM26E (11764081_at) / Fold change /veh FAM26E (11764081_at) / RFU ISYNA1 (11749810_s_at) / Fold change /veh ISYNA1 (11749810_s_at) / RFU ACY1 (11761880_at) / Fold change /veh ACY1 (11761880_at) / RFU 11764098_at / Fold change /veh 11764098_at / RFU SAMD14 (11745864_x_at) / Fold change /veh SAMD14 (11745864_x_at) / RFU NPB (11741838_a_at) / Fold change /veh NPB (11741838_a_at) / RFU TMPRSS6 (11731388_a_at) / Fold change /veh TMPRSS6 (11731388_a_at) / RFU KRTAP10-2 (11738614_at) / Fold change /veh KRTAP10-2 (11738614_at) / RFU ARHGAP8 /// PRR5-ARHGAP8 (11727945_x_at) / Fold change /veh ARHGAP8 /// PRR5-ARHGAP8 (11727945_x_at) / RFU KRTAP5-7 /// NADSYN1 (11734609_at) / Fold change /veh KRTAP5-7 /// NADSYN1 (11734609_at) / RFU RASL12 (11751679_a_at) / Fold change /veh RASL12 (11751679_a_at) / RFU CDKN2B (11736163_a_at) / Fold change /veh CDKN2B (11736163_a_at) / RFU PRF1 (11729649_at) / Fold change /veh PRF1 (11729649_at) / RFU, ZNF638 /// ZNF638-IT1 / Fold change vs veh, ZNF638 /// ZNF638-IT1 / RFU, PANK3 / Fold change vs veh, PANK3 / RFU, SH3YL1 / Fold change vs veh, SH3YL1 / RFU, ZEB2 / Fold change vs veh, ZEB2 / RFU, NRIP1 / Fold change vs veh, NRIP1 / RFU, PTTG1IP / Fold change vs veh, PTTG1IP / RFU, CAPN2 / Fold change vs veh, CAPN2 / RFU, MED14 / Fold change vs veh, MED14 / RFU, SNORA58 / Fold change vs veh, SNORA58 / RFU, C1orf63 / Fold change vs veh, C1orf63 / RFU, LRRFIP1 / Fold change vs veh, LRRFIP1 / RFU, NDUFAF7 / Fold change vs veh, NDUFAF7 / RFU, SLC12A2 / Fold change vs veh, SLC12A2 / RFU, IBTK / Fold change vs veh, IBTK / RFU, ESF1 / Fold change vs veh, ESF1 / Fold change vs veh, TMEM50B / RFU, TAOK1 / Fold change vs veh, TAOK1 / RFU, ACBD3 / Fold change vs veh, ACBD3 / RFU, TMA16 / Fold change vs veh, TMA16 / RFU, RWDD3 / Fold change vs veh, RWDD3 / RFU, BCAT1 / Fold change vs veh, BCAT1 / RFU, EDEM3 / Fold change vs veh, EDEM3 / RFU, TMEM33 / Fold change vs veh, TMEM33 / RFU, WDR75 / Fold change vs veh, WDR75 / RFU, AHCTF1 / Fold change vs veh, AHCTF1 / RFU, TFRC / Fold change vs veh, TFRC / RFU, ZDHHC17 / Fold change vs veh, ZDHHC17 / RFU, NOM1 / Fold change vs veh, NOM1 / RFU, ARL8B / Fold change vs veh, ARL8B / RFU, ZBTB11 / Fold change vs veh, ZBTB11 / RFU, TAMM41 / Fold change vs veh, TAMM41 / RFU, KIAA1704 /// LOC100996395 / Fold change vs veh, KIAA1704 /// LOC100996395 / RFU, ING1 / Fold change vs veh, ING1 / RFU, TRMT61B / Fold change vs veh, TRMT61B / RFU, FUBP3 / Fold change vs veh, FUBP3 / RFU, TP53 / Fold change vs veh, TP53 / RFU, TNKS2 / Fold change vs veh, TNKS2 / RFU, ZFP14 / Fold change vs veh, ZFP14 / RFU, ACTR2 / Fold change vs veh, ACTR2 / RFU, PPP3R1 / Fold change vs veh, PPP3R1 / RFU, PIK3R1 / Fold change vs veh, PIK3R1 / RFU, HNRNPA1 / Fold change vs veh, HNRNPA1 / RFU, RNF170 / Fold change vs veh, RNF170 / RFU, ZNF28 / Fold change vs veh, ZNF28 / RFU, RNGTT / Fold change vs veh, RNGTT / RFU, OGT / Fold change vs veh, OGT / RFU, BRD1 / Fold change vs veh, BRD1 / RFU, MARS / Fold change vs veh, MARS / RFU, ZNF655 / Fold change vs veh, ZNF655 / RFU, FAHD1 / Fold change vs veh, FAHD1 / RFU, BDP1 / Fold change vs veh, BDP1 / RFU, LRRCC1 / Fold change vs veh, LRRCC1 / RFU, ARID1A / Fold change vs veh, ARID1A / RFU, ZNF146 / Fold change vs veh, ZNF146 / RFU, ZNF330 / Fold change vs veh, ZNF330 / RFU, GPN3 / Fold change vs veh, GPN3 / RFU, C9orf123 / Fold change vs veh, C9orf123 / RFU, N4BP2L2 / Fold change vs veh, N4BP2L2 / RFU, ARFIP1 / Fold change vs veh, ARFIP1 / RFU, FAM179B / Fold change vs veh, FAM179B / RFU, BCL10 / Fold change vs veh, BCL10 / RFU, UHRF1BP1L / Fold change vs veh, UHRF1BP1L / RFU, BET1 / Fold change vs veh, BET1 / RFU, CNOT2 / Fold change vs veh, CNOT2 / RFU, ZNF268 / Fold change vs veh, ZNF268 / Fold change vs veh, ZNF507 / RFU, DGCR2 / Fold change vs veh, DGCR2 / RFU, WDSUB1 / Fold change vs veh, WDSUB1 / Fold change vs veh, HSP90B1 /// MIR3652 / RFU, ADSS / Fold change vs veh, ADSS / RFU, GK / Fold change vs veh, GK / RFU, ZNF148 / Fold change vs veh, ZNF148 / RFU, TAF9 / Fold change vs veh, TAF9 / RFU, SLC1A5 / Fold change vs veh, SLC1A5 / RFU, SLMO2 / Fold change vs veh, SLMO2 / RFU, ABCC4 / Fold change vs veh, ABCC4 / RFU, LOC101060439 /// RAP1B / Fold change vs veh, LOC101060439 /// RAP1B / RFU, RFX7 / Fold change vs veh, RFX7 / RFU, GTPBP10 / Fold change vs veh, GTPBP10 / RFU, CNEP1R1 / Fold change vs veh, CNEP1R1 / RFU, BIVM-ERCC5 /// ERCC5 / Fold change vs veh, BIVM-ERCC5 /// ERCC5 / RFU, ILF3 / Fold change vs veh, ILF3 / RFU 11762660_at / Fold change /veh 11762660_at / RFU VCAN (11757783_s_at) / Fold change /veh VCAN (11757783_s_at) / RFU DDX43 (11728927_at) / Fold change /veh DDX43 (11728927_at) / RFU KRT8 (11758188_x_at) / Fold change /veh KRT8 (11758188_x_at) / RFU NKD1 (11759106_at) / Fold change /veh NKD1 (11759106_at) / RFU SRD5A1 (11742802_a_at) / Fold change /veh SRD5A1 (11742802_a_at) / RFU TPSAB1 /// TPSB2 (11721975_s_at) / Fold change /veh TPSAB1 /// TPSB2 (11721975_s_at) / RFU GSTM3 (11746129_a_at) / Fold change /veh GSTM3 (11746129_a_at) / RFU IL23R (11737362_x_at) / Fold change /veh IL23R (11737362_x_at) / RFU TMEM51 (11727254_a_at) / Fold change /veh TMEM51 (11727254_a_at) / RFU PIWIL2 (11732686_x_at) / Fold change /veh PIWIL2 (11732686_x_at) / RFU ORM1 (11744905_x_at) / Fold change /veh ORM1 (11744905_x_at) / RFU CCDC152 (11743942_at) / Fold change /veh CCDC152 (11743942_at) / RFU ECM1 (11717891_a_at) / Fold change /veh ECM1 (11717891_a_at) / RFU IL23R (11748794_a_at) / Fold change /veh IL23R (11748794_a_at) / RFU TNFAIP8L3 (11732012_x_at) / Fold change /veh TNFAIP8L3 (11732012_x_at) / RFU MBOAT4 (11741988_at) / Fold change /veh MBOAT4 (11741988_at) / RFU 11764193_at / Fold change /veh 11764193_at / RFU TMEM53 (11763286_at) / Fold change /veh TMEM53 (11763286_at) / RFU MAGEB2 (11727129_at) / Fold change /veh MAGEB2 (11727129_at) / RFU TMEM200A (11744735_a_at) / Fold change /veh TMEM200A (11744735_a_at) / RFU CCDC152 (11751479_a_at) / Fold change /veh CCDC152 (11751479_a_at) / RFU FAM211A (11726209_a_at) / Fold change /veh FAM211A (11726209_a_at) / RFU RGS16 (11746705_a_at) / Fold change /veh RGS16 (11746705_a_at) / RFU VCAN (11755009_s_at) / Fold change /veh VCAN (11755009_s_at) / RFU RHOB (11743442_s_at) / Fold change /veh RHOB (11743442_s_at) / RFU RGS16 (11720943_a_at) / Fold change /veh RGS16 (11720943_a_at) / RFU RGS16 (11720944_at) / Fold change /veh RGS16 (11720944_at) / RFU, VPS4B / Fold change vs veh, VPS4B / RFU, CREB1 / Fold change vs veh, CREB1 / RFU, DNAJC13 / Fold change vs veh, DNAJC13 / RFU, GNAQ / Fold change vs veh, GNAQ / RFU, CDK5R1 / Fold change vs veh, CDK5R1 / RFU, ZRANB3 / Fold change vs veh, ZRANB3 / RFU, CUL4A / Fold change vs veh, CUL4A / RFU, CCNY / Fold change vs veh, CCNY / RFU, UFL1 / Fold change vs veh, UFL1 / RFU, COG3 / Fold change vs veh, COG3 / RFU, DIAPH2 / Fold change vs veh, DIAPH2 / RFU, SKA2 / Fold change vs veh, SKA2 / RFU, AFF3 / Fold change vs veh, AFF3 / RFU, LMF1 / Fold change vs veh, LMF1 / RFU, IPO11 / Fold change vs veh, IPO11 / RFU, DFFB / Fold change vs veh, DFFB / RFU, FOXP1 / Fold change vs veh, FOXP1 / RFU, CARD8 / Fold change vs veh, CARD8 / RFU, STRN3 / Fold change vs veh, STRN3 / RFU, ADK / Fold change vs veh, ADK / RFU, RASSF2 / Fold change vs veh, RASSF2 / RFU, WIPF1 / Fold change vs veh, WIPF1 / RFU, LARP1B / Fold change vs veh, LARP1B / RFU, RASA1 / Fold change vs veh, RASA1 / RFU, RB1 / Fold change vs veh, RB1 / RFU, PPFIA1 / Fold change vs veh, PPFIA1 / RFU, MAT2A / Fold change vs veh, MAT2A / RFU, CCT5 / Fold change vs veh, CCT5 / RFU, WDR92 / Fold change vs veh, WDR92 / RFU, CUX1 / Fold change vs veh, CUX1 / RFU, TTC7A / Fold change vs veh, TTC7A / RFU, TMEM135 / Fold change vs veh, TMEM135 / RFU, DEPTOR / Fold change vs veh, DEPTOR / RFU, CPM / Fold change vs veh, CPM / RFU, DNAJB6 / Fold change vs veh, DNAJB6 / RFU, CACNA2D3 / Fold change vs veh, CACNA2D3 / RFU, DTX4 / Fold change vs veh, DTX4 / RFU, TFCP2 / Fold change vs veh, TFCP2 / RFU, GMCL1 /// GMCL1P1 / Fold change vs veh, GMCL1 /// GMCL1P1 / RFU, AEBP2 / Fold change vs veh, AEBP2 / RFU, SNHG1 /// SNORD22 /// SNORD25 /// SNORD26 /// SNORD27 /// SNORD28 /// SNORD29 /// SNORD31 / Fold change vs veh, SNHG1 /// SNORD22 /// SNORD25 /// SNORD26 /// SNORD27 /// SNORD28 /// SNORD29 /// SNORD31 / Fold change (Aza/veh), C12orf56 (ProbeSet 11735607_a_at) / Fold change (ACY-1035/veh), C12orf56 (ProbeSet 11735607_a_at) / Fold change (Aza/veh), FGFR1OP (ProbeSet 11751329_s_at) / Fold change (ACY-1035/veh), FGFR1OP (ProbeSet 11751329_s_at) / Fold change (Aza/veh), VPS36 (ProbeSet 11739960_a_at) / Fold change (ACY-1035/veh), VPS36 (ProbeSet 11739960_a_at) / RFU SYPL1 (11715823_x_at) / Fold change /veh SYPL1 (11715823_x_at) / RFU IGFBP7 (11715501_s_at) / Fold change /veh IGFBP7 (11715501_s_at) / RFU REEP3 (11722064_at) / Fold change /veh REEP3 (11722064_at) / RFU IGLL1 (11728026_x_at) / Fold change /veh IGLL1 (11728026_x_at): dose or concentration left out as unconfirmed
# Settings: ProbeSet 11728879_at; LIST B
smiles,measurement,value
Nc1ccc(-c2cccs2)cc1NC(=O)c1ccc2c(c1)cc(C1CC1)n2CCN1CCOCC1 [ACY-1035],"Fold change vs veh, PPP3R1",0.99
